Data taken from patent US11246868B2, “Treatment of hippo pathway mutant tumors and methods of identifying subjects as candidates for treatment” (ICAHN SCHOOL OF MEDICINE AT MOUNT SINAI, priority 2016, dated 2022).
“Also recorded” adds a separate entry of the source. Blank lines part the entries; values can stand above or below the molecule they belong to.

Tests used:
[1] = test system: MCF10A cells stably expressing YAP-WT or YAP-S127A; experiment: Anchorage-independent growth assay, YAP-transformed MCF10A; format: cell-based, human; settings: 3 weeks
Protocol: (§1) Cells were fed every 4 days for 3 weeks by adding 0.2 mL of growth medium containing either 0.1% DMSO as a control or compounds in 0.1% DMSO at the concentrations indicated.

[2] = test system: MCF10A cells stably expressing HRAS-V12; experiment: Anchorage-independent growth assay, HRAS-V12-transformed MCF10A; format: cell-based, human; settings: MCF10A stably expressing HRAS-V12, 3 weeks
Protocol: as §1

[3] = test system: liver tumor growth induced by YAP overexpression or NF2 inactivation; settings: mice, tumors induced by YAP overexpression or NF2 inactivation; cited from earlier work
[4] = test system: TEAD transcriptional activity; experiment: TEAD luciferase reporter assay; format: cell-based, human; settings: for TEAD reporter activity: 293T and H2373 cells, 24 hours, comparison of TNKS and PARP1/2 inhibitors
Protocol: A set of in-house kinase and commercially available inhibitors was used to screen for effects on the TEAD luciferase reporter. 293 cells expressing the TEAD reporter along with renilla-lucifease (20:1 ratio) were plated at low density (2×10^4 cells) in 24 well plates in triplicate. 24 hours after plating, the cells were treated with 10 μM of each compound or DMSO as control. 24 hours later, dual-luciferase reporter assay was performed according to the manufacturer's protocol (Promega, Madison Wis., USA), using TD-20e Luminometer (Turner Biosystem, Promega, Madison Wis., USA). TEAD reporter activity was normalized to renilla luciferase. The Log 2 values were calculated for each compound using the DMSO sample as control.

[5] = test system: TEAD target genes (CTGF, CYR61, ANKRD1); experiment: Quantitative RT-PCR of TEAD target genes; format: cell-based, human; settings: for TEAD target gene expression (CTGF, CYR61, ANKRD1 mRNA): 293T and H2373 cells, 10 μM
Protocol: (§2) Total RNA was extracted from cells using the RNeasy Mini kit (Qiagen, Hilden, Germany) following the manufacturer's instructions. 1 μg of total RNA was used for cDNA synthesis using Superscript II (Invitrogen, Carlsbad, Calif., USA) according to the manufacturer's instructions.
(§3) Quantitative RT-PCR was performed using the ViiA™ 7 Real-Time PCR System (Life Technologies, Carlsbad, Calif., USA) using the FastStart SYBR Green Master mix (Roche, Indianapolis, Ind., USA). Primers were as follows: […]
(§4) PCR was performed in 384 well plates in 10 μl total volumes under the following conditions: 95° C. for 15 min, followed by 40 cycles of 94° C. for 15 sec, 61° C. for 30 sec, and 72° C. for 30 sec. Specificity was verified by a dissociation curve. Results were analyzed with ViiA7 RUO software (Life Technologies, Carlsbad, Calif., USA). Gene expression levels were normalized to GAPDH expression.

H2373 cells = experiment: Clonogenic proliferation (colony formation) assay, H2373; format: cell-based, human; settings: for proliferation / colony formation: H2373 cells (NF2 mutant), 10 to 14 days
Protocol: (§6) For clonogenic proliferation assay, cells were plated in triplicate at 1×10^3 cells in 6-well plates. For analysis of the effects of inhibitors on cell proliferation, fresh medium with inhibitor was replaced every 48 hours. After 10 to 14 days of treatment, cultures were fixed and stained with 1% crystal violet (in ethanol) and photographed.

[6] = test system: AMOT, AMOTL1, AMOTL2 mRNA; experiment: qRT-PCR of angiomotin mRNA levels; format: cell-based, human; settings: 293T and H2373 cells, 10 μM, 24 hours
Protocol: as §2, §3, §4

[7] = test system: angiomotin proteins (AMOT, AMOTL2); experiment: Western blot of angiomotin protein levels; format: cell-based, human; settings: 10 μM; for angiomotin protein levels (AMOT in 293T, AMOTL2 in H2373): 293T and H2373 cells
Protocol: (§5) Cells were harvested in EBC lysis buffer (50 mM Tris-HCl at pH 7.5, 150 mM NaCl, 5 mM EDTA, 0.5% NP-40), supplemented with Complete Mini Protease and Phosphatase Inhibitor Cocktails (Roche, Indianapolis, Ind., USA). Cells were lysed and 30-80 μg protein subjected to SDS-PAGE followed by transfer onto an Immobilon-FL PVDF membrane (Millipore, Billerica, Mass., USA) and incubation with the indicated antibodies. Detection was carried out with an Odyssey Infrared Imaging System (LI-COR Biosciences, Lincoln, Nebr., USA) with IR dye-tagged secondary antibodies (LI-COR Biosciences). The following antibodies were utilized: mouse anti-YAP, goat anti-NF2, mouse anti-AMOT, goat anti-AMOTL1, goat anti-AMOTL2 (Santa Cruz, Dallas, Tex., USA), mouse anti-FlagM2 (Sigma, Saint Louis, Mo., USA), rabbit anti-LATS1, rabbit anti-LATS2, rabbit anti-p-YAP (Cell Signaling, Danvers, Mass., USA), TNKS1/2 (Santa Cruz, Dallas, Tex., USA), mouse anti-TEAD4, mouse anti-RAS (Thermo Scientific, Waltham, Mass., USA), mouse anti-α-Tubulin, mouse anti-β-actin (Sigma, Saint Louis, Mo., USA).

293T cells = experiment: Clonogenic proliferation (colony formation) assay, 293T; format: cell-based, human; settings: 10 to 14 days
Protocol: as §6

[8] = test system: Hippo pathway mutant tumor cells and Hippo pathway wild-type cells; experiment: Cell cycle profile by Propidium Iodide staining; format: cell-based, human; settings: 10 μM, 72 hours
Source text: Statistical analysis of the cell cycle profile is shown below. Error bars indicate SD of experiments performed in triplicate.

YAP = experiment: Immunofluorescence of YAP sub-cellular localization; format: cell-based, human; settings: 24 hours
Protocol: Cells cultured on glass coverslips were fixed for 10 min with 4% paraformaldehyde in 1×PBS at 37° C. and permeabilized for 3 min with 0.02% Triton-X100, following exposure for 1 hour to a blocking solution (PBS containing 5% BSA). Coverslips were then incubated at room temperature with the following primary antibodies: anti-YAP (Santa Cruz, Dallas, Tex., USA) and anti-Flag M2 (Sigma, Saint Louis, Mo., USA). Corresponding secondary antibodies were Alexa fluor conjugated (Molecular Probes, Eugene, Oreg., USA). 2 μg/ml DAPI was used as a counter stain and was used to label nuclei. Imaging was performed using an Axioplan 2 Imaging System (Zeiss, Oberkochen, Germany).

YAP S127 phosphorylation = experiment: Western blot of YAP S127 phosphorylation; format: cell-based, human; settings: H2373 cells, varying XAV939 concentrations, 24 hours
Protocol: as §5

PTEN = experiment: Western blot of PTEN levels; format: cell-based, human; settings: H2052 and H2373 cells, 10 μM, time course
Protocol: as §5

AMOT-YAP protein complex = experiment: Co-immunoprecipitation of endogenous AMOT and YAP; format: cell-based, human; settings: 293T cells, 10 μM, 24 hours
Protocol: Cells were harvested in RIPA lysis buffer (50 mM Tris-Cl; pH 8.0, 5 mM EDTA, 1% Triton X-100, 0.1% sodium deoxycholate, 0.1% SDS, 150 mM NaCl) supplemented with Complete Mini Protease and Phosphatase Inhibitor Cocktails. 800 μg proteins were incubated with 10 μg of antibody overnight at 4° C. Anti-mouse or anti-rabbit IgG (Santa Cruz, Dallas, Tex., USA) was used as a negative control. Immunoprecipitated complexes were captured by 2 h incubation at 4° C. with Dynabeads Protein A/G B (Invitrogen, Carlsbad, Calif., USA), followed by three washes in lysis buffer. Immunoprecipitated complexes were eluted by boiling for 5 min with Laemmli buffer (150 mM Tris-Cl; pH 6.8, 20% glycerol, 4% SDS, 0.002% bromophenol blue, 2% 2-mercaptoethanol) with 10% of the total lysates run on the same gel for comparative immunoblot analysis.

[9] = test system: YAP overexpressing MCF10A cells; settings: cited from earlier work
angiomotin = settings: reported by Wang et al. 2015; cited from earlier work

TEAD reporter activity [4]: able to inhibit
Molecule: O=C(Nc1cccc2cccnc12)c1ccc(N2C(=O)[C@@H]3[C@H](C2=O)[C@@H]2C=C[C@H]3C2)cc1 [IWR1]
TEAD target gene expression (CTGF, CYR61, ANKRD1 mRNA) ([5]; 24 hours): able to inhibit | proliferation / colony formation (H2373 cells): significantly decreased | AMOT, AMOTL1, AMOTL2 mRNA levels [6]: did not markedly affect | angiomotin protein levels (AMOT in 293T, AMOTL2 in H2373) ([7]; 24 hours): strikingly increased

TEAD reporter activity [4]: did not affect
Molecule: C[C@]1(c2nc3c(C(N)=O)cccc3[nH]2)CCCN1 [ABT-888]
TEAD target gene expression (CTGF, CYR61, ANKRD1 mRNA) ([5]; 24 hours): did not affect | proliferation / colony formation (293T cells): did not affect | proliferation / colony formation (H2373 cells): did not affect | AMOT, AMOTL1, AMOTL2 mRNA levels [6]: lacked any effect | angiomotin protein levels (AMOT in 293T, AMOTL2 in H2373) ([7]; 24 hours): lacked any effect

TEAD reporter activity [4]: able to inhibit
Molecule: CC(C)c1ccc(-c2cc(=O)c3ccccc3o2)cc1 [MN-64]
TEAD target gene expression (CTGF, CYR61, ANKRD1 mRNA) ([5]; 24 hours): able to inhibit | proliferation / colony formation (H2373 cells): significantly decreased | AMOT, AMOTL1, AMOTL2 mRNA levels [6]: did not markedly affect | angiomotin protein levels (AMOT in 293T, AMOTL2 in H2373) ([7]; 24 hours): strikingly increased

Further lines, the molecule ahead of its results:

Molecule: verteporfin
YAP-WT- and YAP-S127A-induced anchorage-independent cell growth (soft agar colonies) [1]: completely blocked | HRAS-V12-induced agar colony formation [2]: completely blocked | liver tumor growth [3]: suppressed

Molecule: Oc1nc(-c2ccc(C(F)(F)F)cc2)nc2c1CSCC2 [XAV939]
inhibitory effect on TEAD transcriptional activity under AMOTL2 silencing ([4]; H2373 cells, doxycycline-inducible AMOTL2 shRNA, 10 μM XAV939): almost completely rescued | expression of TEAD target genes (CTGF, CYR61, ANKRD1 mRNA) ([5]; H2052 cells, 24 hours): only modestly affected | expression of TEAD target genes ([5]; MCF10A cells stably overexpressing YAP-S127A): inhibited | expression of TEAD target genes (CTGF, CYR61, ANKRD1 mRNA) ([5]; all cell lines tested with the exception of H2052, 24 hours): markedly decreased | inhibitory effect on colony formation under AMOTL2 silencing (H2373 cells; H2373 cells, doxycycline-inducible AMOTL2 shRNA, 10 μM XAV939, 14 days): almost completely rescued | cell cycle profile ([8]; cell lines which were not growth inhibited): no detectable cell cycle alteration | cell cycle profile ([8]; tumor lines whose proliferation was inhibited): increased G1 and reduced S phase fractions | HRAS-V12-induced agar colony formation [2]: lacked any effect; also recorded: not inhibited | YAP sub-cellular localization (YAP; H2373 cells, endogenous YAP): induced YAP re-localization to the cytoplasm | YAP-S127A sub-cellular localization (YAP; MCF10A stably expressing YAP-S127A): significant shift of YAPS127A to the cytoplasm | YAP S127 phosphorylation status (YAP S127 phosphorylation): did not show any significant differences | AMOT, AMOTL1, AMOTL2 mRNA levels [6]: did not markedly affect | angiomotin protein levels (AMOT in 293T, AMOTL2 in H2373) ([7]; 24 hours): strikingly increased | AMOTL2 protein levels ([7]; H2052 cells, 24 hrs): increased | AMOTL2 protein levels, time course ([7]; H2373 as compared to resistant H2052 cells, 12 days): stabilized higher, durable levels | AMOTL2 levels ([7]; Hippo mutant MESO25 and 211H cells, 24 hours): Increased | durable stabilization of AMOTL2 ([7]; resistant H2052 cells): failed to durably stabilize | levels of PTEN (PTEN): increased modestly | AMOT-YAP protein complex (AMOT-YAP protein complex): enrichment | acini formation in matrigel [9]: inhibited | angiomotin stabilization (angiomotin): stabilized
